Legend:
[1] = Binding affinity to Escherichia coli K12 stem-loop region L2-10 RNA aptamers using luminescence spectrometer by anisotropy technique
[2] = Binding affinity to Escherichia coli K12 stem-loop region L2-12 RNA aptamers using luminescence spectrometer by anisotropy technique
[3] = Binding affinity to Escherichia coli K12 stem-loop region L2-12 RNA aptamers using BIAcore 3000 instrument
[4] = Binding affinity to Escherichia coli K12 stem-loop region L2-11 RNA aptamers using BIAcore 3000 instrument
[5] = Binding affinity to Escherichia coli K12 stem-loop region L2-11 RNA aptamers using luminescence spectrometer by anisotropy technique

For NC[C@@H]1O[C@H](O[C@H]2[C@@H](O)[C@H](O[C@@H]3[C@@H](O)[C@H](N)C[C@H](N)[C@H]3O[C@H]3O[C@H](CN)[C@@H](O)[C@H](O)[C@H]3N)O[C@@H]2CO)[C@H](N)[C@@H](O)[C@@H]1O (stereo in doubt) [FRAMYCETIN], the Kd [1] was 308 nM, the Kd [2] was 320 nM and the Kd [3] was 2300 nM. For the same molecule, the Kd [4] was 6300 nM and the Kd [5] was 313 nM.
With CC(=O)NC[C@@H]1CN(c2ccc(N3CCN(C(=O)CSCCCCCCSC[C@@H]4O[C@H](O[C@@H]5[C@@H](O)[C@H](N)C[C@H](N)[C@H]5O[C@H]5O[C@H](CN)[C@@H](O)[C@H](O)[C@H]5N)[C@@H](O)[C@H]4O[C@@H]4O[C@H](CN)[C@H](O)[C@@H](O)[C@@H]4N)CC3)c(F)c2)C(=O)O1 the Kd [1] was 90 nM, the Kd [2] was 66 nM and the Kd [3] was 670 nM. It also gave a Kd [4] of 960 nM and a Kd [5] of 260 nM.

Reference: ChEMBL document CHEMBL1137519, “Elucidation of the RNA target of linezolid by using a linezolid-neomycin B heteroconjugate and genomic SELEX” (Bioorg Med Chem, 2007)
